The record followed here is patent publication US20110045065A1, “SUBSTANCE HAVING ANTIOXIDANT, GEROPROTECTIVE AND ANTI-ISCHEMIC ACTIVITY AND METHOD FOR THE PREPARATION THEREOF” (priority 2005, published 2011).

This assay deals with traumatic hemophthalmia. In words: Experimental traumatic hemophthalmia: preclinical and ultrasonic examination. The note with it: for Capability of ophthalmoscopy and eyeground: 3-point scale, 0 impossible, 3 details clearly visible; for Density of hemophthalmia: 100 SUD = ultrasonic sclera density; for Area of hemophthalmia / Volume of a hemophthalmia: parabulbar 0.5 ml of 1% solution daily. The class given is in vivo, chinchilla rabbits. As for the experimental part: Studies were carried out in 12 chinchilla rabbits having body weight 2.0-2.5 kg. A traumatic hemophthalmia was modeled by introduction of 0.5 to 0.7 ml of autoblood into a vitreous body through a puncture in a sclera on distance of 5 mm from a limbus, under a local anaesthesia. The basic group made with 6 rabbits (12 eyes), daily received a formulation prepared in accordance with the present invention parabulbarly (0.5 ml of 1% solution). A control group presented by 6 animals (12 eyes), daily received parabulbar emoxipin (2-ethyl-6-methyl-3-hydroxypiridin) in the same dosage. Treatment was carried out within 14 days after a trauma.
Besides the traditional ophthalmologic examination such as biomicroscopy, direct and indirect ophthalmoscopy, all the animals passed through ultrasonic scanning of an eye by means of the device “Voluson 730” (“Kretz”). The studies were carried out on the 1, 3, 7, 10 and 14th day of the experiment. For the estimation of efficiency of the treatment following tests were used: density, area, volume of a hemophthalmia and opportunity (possibility) of ophthalmoscopy of an eye ground. Density of a hemophthalmia was estimated in standard (conventional) units of density (SUD), 100 SUD were accepted for the maximal value, corresponding to the ultrasonic sclera density. Depending on the degree of acoustic density of a hemophthalmia, a high (100-50 SUD), medium (50-25 SUD) and low (less than 25 SUD) densities were distinguished. To determine the hemophthalmia the area measurement in sm^2 was used. The volume of the intraocular hemorrhage was studied with the help of 3D modelling in the B-regimen of a grey scale and measurement in sm^3.
At the ultrasonic examination of the intact rabbit's eyes, the average volume of vitreous body (1.0±0.9 sm^3) and the average area of a vitreous body (1.04±0.8 sm^2) were fixed. Proceeding from the obtained data, the total hemophthalmia (from 100 up to 50% of the vitreous body volume) was equated to the volume of 0.5-1.0 sm^3 and of 0.5-1.0 sm^2, a wide-spread hemophthalmia (50-25% of volume of a vitreous) corresponded to the area of 0.5-0.25 sm^3, both 0.5-0.25 sm^2, and the partial hemophthalmia occupied up to 0.25 sm^3 and 0.25 sm^2 (up to 25% of the vitreous volume).
Capability of the eyeground ophthalmoscopy was estimated by a 3-mark(point) scale depending on the image sharpness (0—ophthalmoscopy is impossible (not capable), 3—details of an eyeground are clearly visible).

Values joined by “and” are separate entries in the source; they are usually repeats but may differ in a detail not shown here. Equal values may be shown once. “Also recorded” adds a separate entry of the source.

Take “2,4,6-trimethyl-3-oxypyridine succinate [Compound Ic]”: the “Capability of ophthalmoscopy and eyeground” value reads like this: (1st day) 1.5 points; (3rd day) 0-0.5 points; (7th day) 1.5 points; (10th day) 2.2 points; (14th day) 2.8 points. Besides, the Density of hemophthalmia is 84 ± 2.4 SUD (1st day); 72 ± 3.1 SUD (3rd day); 49±1.4 SUD (7th day); 23±1.1 SUD (10th day); 13±0.6 SUD (14th day). Further, the Area of hemophthalmia was 0.49 ± 0.7 sm^2 (1st day); 0.74 ± 0.9 sm^2 (3rd day); 0.47 ± 0.4 sm^2 (7th day); 0.24±0.1 sm^2 and 0.2 ± 0.1 sm^2 (10th day); 0.11 ± 0.7 sm^2 (14th day). Besides, the “Volume of a hemophthalmia” value is 0.53 ± 0.4 sm^3 (1st day); 0.78 ± 0.2 sm^3 (3rd day); 0.51 ± 0.6 sm^3 (7th day); 0.2±0.1 sm^3 and 0.24 ± 0.1 sm^3 (10th day); 0.15 ± 0.2 sm^3 (14th day). Further, the Hemophthalmia completely resolved result (10th day, group of 6 rabbits) is on record as “two animals” and the Hemophthalmia completely resolved (14th day) was 50 % of animals. The “Efficiency on resorption of traumatic hemophthalmia” value (conclusion in words) was “positive effect on the resorptive processes in a vitreous body; also recorded: much higher in comparison with emoxipin”.
